Where two headings read alike, the source gives them in different places. Values belong to the compound of their own block, whether it stands above or below them.
Columns and labels:
[1] = system: ORYSA: rice (Oryza sativa); assay: Post-Emergent Test I herbicidal activity; type: in vivo; settings: post-emergence, 336 h, Table 3, 140 g ai/ha, read-out: Visual Growth Reduction (%)-14 Days after Application ORYSA
Procedure, shortened: (§1)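 Visual injury ratings (0 = none, 100 = complete kill) taken 14 d after treatment, compared with untreated plants, feed probit-derived GR20/GR50/GR80. Application: overhead spray, 187 L/ha, highest rate and ½×-1/16× dilutions in acetone-DMSO-based aqueous spray mix with crop oil and surfactant, onto plants grown 7-21 d to first or second true leaf.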

[2] = system: CHEAL: lambsquarters (Chenopodium album); assay: Post-Emergent Test I herbicidal activity; type: in vivo; settings: for pest or weed control at 140 g/ha: Table 3, 140 g ai/ha
Procedure, shortened: (§2)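 Greenhouse plants at first-second true leaf stage sprayed post-emergence by track sprayer at 187 L/ha with compound in acetone/DMSO/water/isopropanol carrier with crop oil concentrate and Triton X-155, top rate plus ½× to 1/16× serial rates. Injury scored visually at 14 d, 0-100% versus untreated plants; GR20, GR50, GR80 from probit analysis.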

[3] = system: CYPES: yellow nutsedge (Cyperus esculentus); assay: Post-Emergent Test I herbicidal activity; type: in vivo; settings: post-emergence, 336 h, Table 3, 140 g ai/ha, read-out: Visual Growth Reduction (%)-14 Days after Application CYPES
Procedure, shortened: as §2

[4] = system: ECHCG: barnyardgrass (Echinochloa crus-galli); assay: Post-Emergent Test I herbicidal activity; type: in vivo; settings: post-emergence, 336 h, Table 3, 140 g ai/ha, read-out: Visual Growth Reduction (%)-14 Days after Application ECHCG
Procedure, shortened: as §1

[5] = system: ABUTH: velvetleaf (Abutilon theophrasti); assay: Post-Emergent Test I herbicidal activity; type: in vivo
Procedure, shortened: as §2

[6] = system: EPHHL: wild poinsettia (Euphorbia heterophylla); assay: Post-Emergent Test I herbicidal activity; type: in vivo; settings: post-emergence, 336 h, Table 3, 140 g ai/ha, read-out: Visual Growth Reduction (%)-14 Days after Application EPHHL
Procedure, shortened: as §2

ZEAMX: corn (Zea mays) = assay: Post-Emergent Test I herbicidal activity; type: in vivo
Procedure, shortened: as §2

[7] = Chenopodium album, post-emergence, 336 h, read-out: Visual Growth Reduction (%)-14 Days after Application CHEAL
[8] = Abutilon theophrasti, post-emergence, 336 h, Table 3, 140 g ai/ha, read-out: Visual Growth Reduction (%)-14 Days after Application ABUTH
[9] = Zea mays, post-emergence, 336 h, Table 3, 140 g ai/ha, read-out: Visual Growth Reduction (%)-14 Days after Application ZEAMX
[10] = Table 4, growth reduction of 20% of plant growth, 14 days after application, probit analysis
[11] = Table 4, growth reduction of 50% of plant growth, 14 days after application, probit analysis
[12] = Table 4, growth reduction of 80% of plant growth, 14 days after application, probit analysis

- melting point: 133.5 to 135.5 °C
SMILES: COC(=O)c1nc(-c2ccc(Cl)c(OC)c2F)c(F)c(N)c1OC [Compound 34]
- pest or weed control at 140 g/ha [1]: 10%
- pest or weed control at 140 g/ha [2, 7]: 100%
- pest or weed control at 140 g/ha [3]: 100%
- pest or weed control at 140 g/ha [4]: 100%
- pest or weed control at 140 g/ha [5, 8]: 100%
- pest or weed control at 140 g/ha [6]: 100%
- pest or weed control at 140 g/ha (ZEAMX: corn (Zea mays); [9]): 90%

- melting point: 165 °C
SMILES: COc1c(N)cc(-c2ccc(Cl)cc2)nc1C(=O)O [Compound 46]
- pest or weed control at 140 g/ha [1]: 0%
- pest or weed control at 140 g/ha [2, 7]: 100%
- pest or weed control at 17.5 g/ha ([2]; Chenopodium album, post-emergence, 336 h, Table 4, 17.5 g ai/ha, read-out: Visual Growth Reduction (%)-14 Days after Application CHEAL): 90%
- pest or weed control at 35 g/ha ([2]; Chenopodium album, post-emergence, 336 h, Table 4, 35 g ai/ha, read-out: Visual Growth Reduction (%)-14 Days after Application CHEAL): 95%
- pest or weed control at 70 g/ha ([2]; Chenopodium album, post-emergence, 336 h, Table 4, 70 g ai/ha, read-out: Visual Growth Reduction (%)-14 Days after Application CHEAL): 100%
- pest or weed control at 280 g/ha ([2]; Chenopodium album, post-emergence, 336 h, Table 4, 280 g ai/ha, read-out: Visual Growth Reduction (%)-14 Days after Application CHEAL): 100%
- Visual Growth Reduction (%)-14 Days after Application CHEAL ([2]; Table 4, 140 g ai/ha): 100%
- GR20 CHEAL [2, 10]: <17.5 g ai/ha
- GR50 CHEAL [2, 11]: <17.5 g ai/ha
- GR80 CHEAL [2, 12]: <17.5 g ai/ha
- pest or weed control at 140 g/ha [3]: 0%
- pest or weed control at 140 g/ha [4]: 15%
- pest or weed control at 140 g/ha [5, 8]: 100%
- pest or weed control at 17.5 g/ha ([5]; Abutilon theophrasti, post-emergence, 336 h, Table 4, 17.5 g ai/ha, read-out: Visual Growth Reduction (%)-14 Days after Application ABUTH): 80%
- pest or weed control at 35 g/ha ([5]; Abutilon theophrasti, post-emergence, 336 h, Table 4, 35 g ai/ha, read-out: Visual Growth Reduction (%)-14 Days after Application ABUTH): 85%
- pest or weed control at 70 g/ha ([5]; Abutilon theophrasti, post-emergence, 336 h, Table 4, 70 g ai/ha, read-out: Visual Growth Reduction (%)-14 Days after Application ABUTH): 95%
- pest or weed control at 140 g/ha ([5]; Abutilon theophrasti, post-emergence, 336 h, Table 4, 140 g ai/ha, read-out: Visual Growth Reduction (%)-14 Days after Application ABUTH): 100%
- pest or weed control at 280 g/ha ([5]; Abutilon theophrasti, post-emergence, 336 h, Table 4, 280 g ai/ha, read-out: Visual Growth Reduction (%)-14 Days after Application ABUTH): 100%
- GR20 ABUTH [5, 10]: <17.5 g ai/ha
- GR50 ABUTH [5, 11]: <17.5 g ai/ha
- GR80 ABUTH [5, 12]: 19.7 g ai/ha
- pest or weed control at 140 g/ha [6]: 100%
- GR20 ZEAMX (ZEAMX: corn (Zea mays); [10]): >280 g ai/ha
- GR50 ZEAMX (ZEAMX: corn (Zea mays); [11]): >280 g ai/ha
- GR80 ZEAMX (ZEAMX: corn (Zea mays); [12]): >280 g ai/ha
- pest or weed control at 140 g/ha (ZEAMX: corn (Zea mays); [9]): 0%
- pest or weed control at 17.5 g/ha (ZEAMX: corn (Zea mays); Zea mays, post-emergence, 336 h, Table 4, 17.5 g ai/ha, read-out: Visual Growth Reduction (%)-14 Days after Application ZEAMX): 0%
- pest or weed control at 35 g/ha (ZEAMX: corn (Zea mays); Zea mays, post-emergence, 336 h, Table 4, 35 g ai/ha, read-out: Visual Growth Reduction (%)-14 Days after Application ZEAMX): 0%
- pest or weed control at 70 g/ha (ZEAMX: corn (Zea mays); Zea mays, post-emergence, 336 h, Table 4, 70 g ai/ha, read-out: Visual Growth Reduction (%)-14 Days after Application ZEAMX): 0%
- pest or weed control at 140 g/ha (ZEAMX: corn (Zea mays); Zea mays, post-emergence, 336 h, Table 4, 140 g ai/ha, read-out: Visual Growth Reduction (%)-14 Days after Application ZEAMX): 0%
- pest or weed control at 280 g/ha (ZEAMX: corn (Zea mays); Zea mays, post-emergence, 336 h, Table 4, 280 g ai/ha, read-out: Visual Growth Reduction (%)-14 Days after Application ZEAMX): 0%

Source: patent US9518018B2, “3-alkoxy, thioalkyl and amino-4-amino-6-(substituted)picolinates and their use as herbicides” (Dow AgroSciences LLC, priority 2011, dated 2016)
